Type in all cases: cell-based
Assay [1] concerns hybridoma cell line C. Kind of assay: Harvest antibody titre, hybridoma cell line C. To be noted: DMEM + 10% FCS, 0.50 mM butyrate, control 51. On the procedure:
(§1) Hybridoma cells were grown in suspension culture in either serum-free medium (see Example 1) or in DMEM supplemented with 10% (v/v), heat inactivated foetal calf serum. Cells were cultured in either roller bottles or in shake-flasks, as in Example 1. Sodium butyrate was added to cultures immediately after inoculation.

Assay [2] has as its system hybridoma cell line I. The experiment in a line: Harvest antibody titre, hybridoma cell line I. To be noted: DMEM + 5% FCS, control 113. On the procedure: […] Cells were cultured in either roller bottles or in shake-flasks, as in Example 1. Sodium butyrate was added to cultures immediately after inoculation.
Assay [3] has as its system mouse C127 cell line producing recombinant tissue plasminogen activator (tPA). Kind of assay: Production of recombinant tPA from C127 cell line on microcarriers (fibrin-agar method; nuclei count). To be noted: for CONCENTRATION OF TPA PER ML: control 100. On the procedure: A mouse C127 cell line producing recombinant tissue plasminogen activator (tPA) was cultured on microcarriers (gelibeads, K. C. Biologicals) in spinner vessels (Bellco). The growth medium was DMEM supplemented with 10% foetal calf serum. The concentration of microcarriers were 5 grams (dryweight) per liter of medium. Calls were inoculated at a density of 1×10^5 cells per ml.
After the cells had grown to confluency on the surface of the microcarriers, growth medium was aspirated and replaced with a protein-free DMEM-based maintenance medium containing the butyrate. Control cultures received no butyrate.
Cell density was determined by counting nuclei which were released from cells by hypotonic lysis (ref. Absher, in “Tissue Culture Methods and Applications”, Kruse & Patterson. Academic Press 1973). The concentration of tPA in the supernatant was assayed using the fibrin-agar method.

Assay [4] deals with hybridoma cell line G. Kind of assay: Harvest antibody titre, hybridoma cell line G. The settings on record: SFM, control 10. On the procedure: as §1

As for `CCCC(=O)[O-].[Na+]` [sodium butyrate], the “HARVEST ANTIBODY TITER” value in assay [1] was 71 mg/L; in assay [2] (0.35 mM butyrate), 135 mg/L; in assay [2] (0.50 mM butyrate), 154 mg/L; in assay [4] (0.25 mM butyrate), 11 mg/L; in assay [4] (0.50 mM butyrate), 13 mg/L. The “CELL DENSITY” value in assay [3] (0.5 mM butyrate, maintenance period 46 hours, control 10.8) is 11.1 x10^5 cells/ml; in assay [3] (0.5 mM butyrate, maintenance period 92 hours, control 13.7), 10.3 x10^5 cells/ml; in assay [3] (0.5 mM butyrate, maintenance period 140 hours, control 19.1), 12.3 x10^5 cells/ml; in assay [3] (1.0 mM butyrate, maintenance period 46 hours, control 10.8) it was 11.5 x10^5 cells/ml; in assay [3] (1.0 mM butyrate, maintenance period 92 hours, control 13.7), 9.2 x10^5 cells/ml; in assay [3] (1.0 mM butyrate, maintenance period 140 hours, control 19.1) it was 9.4 x10^5 cells/ml. Moreover, the “CELL DENSITY” value in assay [3] (2.5 mM butyrate, maintenance period 46 hours, control 10.8) is 9.6 x10^5 cells/ml; in assay [3] (2.5 mM butyrate, maintenance period 92 hours, control 13.7), 7.6 x10^5 cells/ml; in assay [3] (2.5 mM butyrate, maintenance period 140 hours, control 19.1), 6.6 x10^5 cells/ml. The “CONCENTRATION OF TPA PER ML” value in assay [3] (0.5 mM butyrate, maintenance period 46 hours) was determined as 159 arbitrary units; in assay [3] (0.5 mM butyrate, maintenance period 92 hours), 143 arbitrary units; in assay [3] (0.5 mM butyrate, maintenance period 140 hours) it was 186 arbitrary units; in assay [3] (1.0 mM butyrate, maintenance period 46 hours) it was 191 arbitrary units; in assay [3] (1.0 mM butyrate, maintenance period 92 hours), 157 arbitrary units; in assay [3] (1.0 mM butyrate, maintenance period 140 hours) it was 236 arbitrary units. Besides, the “CONCENTRATION OF TPA PER ML” value in assay [3] (2.5 mM butyrate, maintenance period 46 hours) was found to be 945 arbitrary units; in assay [3] (2.5 mM butyrate, maintenance period 92 hours), 1782 arbitrary units; in assay [3] (2.5 mM butyrate, maintenance period 140 hours) it was 3468 arbitrary units.

The values are drawn from US6660501B2, “Production of proteins by cell culture” (Lonza Group, AG, priority 1986, dated 2003).
